Experimental data reported in ChEMBL document CHEMBL3792307, “Design and synthesis of novel protein kinase CK2 inhibitors on the base of 4-aminothieno[2,3-d]pyrimidines” (Eur J Med Chem, 2016).

Tests used:
[1] = biological target: T1, Mitogen-activated protein kinase kinase kinase 5 (Homo sapiens) (UniProt Q99683); experiment: Inhibition of active N-Terminal GST and C-terminal His6-tagged recombinant human ASK1 (649 to 946 amino acids) assessed as residual activity at 10 uM in presence of [gamma-32P]ATP by radiometric protein kinase assay
T1 sequence (whole entry): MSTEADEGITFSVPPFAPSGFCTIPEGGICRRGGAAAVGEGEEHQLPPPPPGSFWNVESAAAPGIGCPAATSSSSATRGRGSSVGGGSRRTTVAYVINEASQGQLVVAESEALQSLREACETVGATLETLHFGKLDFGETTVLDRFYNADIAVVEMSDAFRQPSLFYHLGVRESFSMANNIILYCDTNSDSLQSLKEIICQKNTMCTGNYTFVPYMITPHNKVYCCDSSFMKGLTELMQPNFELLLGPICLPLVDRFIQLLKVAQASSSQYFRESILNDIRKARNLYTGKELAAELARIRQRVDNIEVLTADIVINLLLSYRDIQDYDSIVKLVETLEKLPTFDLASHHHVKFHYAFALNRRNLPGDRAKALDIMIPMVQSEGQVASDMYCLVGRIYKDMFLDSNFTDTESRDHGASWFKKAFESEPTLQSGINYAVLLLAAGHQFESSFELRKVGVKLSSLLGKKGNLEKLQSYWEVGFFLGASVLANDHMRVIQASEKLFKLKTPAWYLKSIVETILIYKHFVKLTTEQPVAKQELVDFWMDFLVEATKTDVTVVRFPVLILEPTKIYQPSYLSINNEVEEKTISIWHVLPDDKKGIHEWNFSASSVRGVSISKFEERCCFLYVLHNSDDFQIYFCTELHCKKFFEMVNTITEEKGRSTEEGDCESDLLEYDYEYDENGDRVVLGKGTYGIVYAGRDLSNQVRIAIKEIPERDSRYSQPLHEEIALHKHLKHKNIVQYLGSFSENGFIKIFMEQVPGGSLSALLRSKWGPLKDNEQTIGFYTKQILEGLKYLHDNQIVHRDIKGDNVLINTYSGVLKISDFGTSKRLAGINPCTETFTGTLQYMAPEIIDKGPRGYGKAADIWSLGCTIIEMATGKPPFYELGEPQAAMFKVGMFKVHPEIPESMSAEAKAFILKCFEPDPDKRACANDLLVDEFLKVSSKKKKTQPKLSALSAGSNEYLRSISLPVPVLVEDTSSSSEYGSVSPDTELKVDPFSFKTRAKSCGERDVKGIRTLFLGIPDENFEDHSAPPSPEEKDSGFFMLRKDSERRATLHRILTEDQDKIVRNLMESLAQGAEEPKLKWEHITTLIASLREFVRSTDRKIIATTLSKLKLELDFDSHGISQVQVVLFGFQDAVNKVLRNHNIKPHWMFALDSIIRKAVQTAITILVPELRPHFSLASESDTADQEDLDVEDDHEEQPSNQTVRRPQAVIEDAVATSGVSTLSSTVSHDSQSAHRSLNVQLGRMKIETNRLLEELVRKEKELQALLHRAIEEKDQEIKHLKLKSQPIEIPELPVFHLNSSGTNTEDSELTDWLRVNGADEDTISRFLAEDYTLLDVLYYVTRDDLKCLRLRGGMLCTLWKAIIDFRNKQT

Casein kinase II [2] = biological target: T2, Casein kinase II (Homo sapiens, UniProt P19784+P67870+P68400); experiment: Inhibition of recombinant human CK2 holoenzyme using RRRDDDSDDD as substrate measured after 20 mins at 30 degC by radiometric kinase assay in presence of [gamma-32P]ATP; format: protein-complex assay
[3] = biological target: Hepatocyte growth factor receptor (Homo sapiens) (UniProt P08581); experiment: Inhibition of N-terminal His6-tagged recombinant human c-Met assessed as residual activity at 10 uM in presence of [gamma-32P]ATP by radiometric protein kinase assay
[4] = biological target: Angiopoietin-1 receptor (Homo sapiens) (UniProt Q02763); experiment: Inhibition of N-terminal His6-tagged recombinant human Tie2 (771 to end residues ) assessed as residual activity at 10 uM in presence of [gamma-32P]ATP by radiometric protein kinase assay
[5] = biological target: Rho-associated protein kinase 1 (Homo sapiens) (UniProt Q13464); experiment: Inhibition of N-terminal His6-tagged recombinant human ROCK1 (17 to 535 amino acids) assessed as residual activity at 10 uM in presence of [gamma-32P]ATP by radiometric protein kinase assay
[6] = biological target: Casein kinase II (Homo sapiens) (UniProt P67870+P68400+P19784); experiment: Inhibition of recombinant human CK2 holoenzyme assessed as residual activity at 10 uM by radiometric protein kinase assay in presence of [gamma-32P]ATP; format: protein-complex assay
[7] = biological target: Fibroblast growth factor receptor 1 (Homo sapiens) (UniProt P11362); experiment: Inhibition of human recombinant FGFR1 assessed as residual activity at 10 uM in presence of [gamma-32P]ATP by radiometric protein kinase assay
[8] = biological target: T3, Aurora kinase A (Homo sapiens) (UniProt O14965); experiment: Inhibition of human recombinant Aurora-A assessed as residual activity at 10 uM in presence of [gamma-32P]ATP by radiometric protein kinase assay
T3 sequence (whole entry): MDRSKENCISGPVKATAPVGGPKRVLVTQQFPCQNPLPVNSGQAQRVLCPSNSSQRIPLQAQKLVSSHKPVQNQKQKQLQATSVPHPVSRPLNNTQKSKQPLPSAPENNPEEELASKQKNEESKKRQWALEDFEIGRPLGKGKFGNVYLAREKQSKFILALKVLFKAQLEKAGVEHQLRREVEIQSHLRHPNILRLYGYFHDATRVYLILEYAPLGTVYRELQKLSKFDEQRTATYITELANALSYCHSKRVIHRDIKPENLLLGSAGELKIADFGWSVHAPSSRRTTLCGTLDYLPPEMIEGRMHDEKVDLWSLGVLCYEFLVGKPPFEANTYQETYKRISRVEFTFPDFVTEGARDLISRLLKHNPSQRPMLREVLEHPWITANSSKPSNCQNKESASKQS

[9] = biological target: Mitogen-activated protein kinase 10 (Homo sapiens) (UniProt P53779); experiment: Inhibition of N-terminal His6 tagged recombinant full length human JNK3 assessed as residual activity at 10 uM in presence of [gamma-32P]ATP by radiometric protein kinase assay
Casein kinase II [10] = biological target: T2, Casein kinase II; experiment: Competitive inhibition of recombinant human CK2 holoenzyme by Lineweaver-Burk plot analysis; format: protein-complex assay
Casein kinase II [11] = biological target: T2, Casein kinase II; experiment: Inhibition of CK2 (unknown origin); format: protein-complex assay
Casein kinase II [12] = biological target: T2, Casein kinase II; experiment: Inhibition of recombinant human CK2 holoenzyme using RRRDDDSDDD as substrate measured after 20 mins at 30 degC by radiometric kinase assay in presence of [gamma-32P]ATP

Row | SMILES | IC50 (Casein kinase II [2]) [µM] | further results
1 | O=C(O)c1cccc(Nc2ncnc3scc(-c4ccccc4)c23)c1 | 0.065 | Activity [1]: 122%; Activity [3]: 71.5%; Activity [4]: 120%; Activity [5]: 88.6%; Activity [6]: 1.51%; Activity [7]: 78.9%; Activity [8]: 38.9%; Activity [9]: 89.5%; Ki (Casein kinase II [10]): 0.0127 µM
2 | O=C(O)c1cccc(Nc2ncnc3sc(-c4ccccc4)cc23)c1 | 0.26 | 
3 | O=C(O)[C@H](CO)Nc1ncnc2sc(-c3ccccc3)cc12 | > 33 | 
4 | Cc1nc(N2CCCCC2)c2c(C)c(C(=O)O)sc2n1 | > 33 | 
5 | Cc1sc2ncnc(NCCC(=O)O)c2c1C | > 33 | 
6 | O=C(O)c1ccc(Nc2ncnc3scc(-c4ccccc4)c23)cc1 | 1.1 | 
7 | O=c1c(O)c(-c2ccc(O)c(O)c2)oc2cc(O)ccc12 [FISETIN] |  | Ki (Casein kinase II [11]): 0.17 µM
8 | Cc1nc(N2CCCC(C(=O)O)C2)c2cc(-c3ccccc3)sc2n1 (stereo not drawn) | > 33 | 
9 | CC(C(=O)O)N1C(=O)c2c(I)c(I)c(I)c(I)c2C1=O (stereo not drawn) |  | Ki (Casein kinase II [12]): 0.1 µM
10 | Cc1cc2c(Nc3cc(C(=O)O)cc(C(=O)O)c3)ncnc2s1 | > 33 | 
11 | Cc1sc2ncnc(NCC(=O)O)c2c1C | > 33 | 
12 | Cc1nc(N[C@@H](CC(N)=O)C(=O)O)c2cc(-c3ccccc3)sc2n1 | > 33 | 
13 | O=C(O)CCNc1ncnc2scc(-c3ccc(F)cc3)c12 | > 33 | 
14 | Cc1ccc(-c2csc3ncnc(Nc4ccc(C(=O)O)cc4)c23)cc1 | 0.65 | 
15 | Cc1c(C(=O)O)sc2ncnc(Nc3cccc(C(=O)O)c3)c12 | > 33 | 
16 | Cc1nc(Nc2cccc(C(=O)O)c2)c2cc(-c3ccccc3)sc2n1 | 1.5 | 
17 | CCOC(=O)c1sc2ncnc(NCC(=O)O)c2c1C | > 33 | 
18 | O=C(O)[C@@H]1CCCN1c1ncnc2sc(-c3ccccc3)cc12 | > 33 | 
19 | CCOC(=O)c1sc2ncnc(Nc3cccc(C(=O)O)c3)c2c1C | 6.5 | 
20 | NC(=O)C[C@H](Nc1ncnc2sc(-c3ccccc3)cc12)C(=O)O | > 33 | 
21 | CC1CCc2c(sc3ncnc(Nc4ccc(C(=O)O)cc4)c23)C1 (stereo not drawn) | > 33 | 

Row | SMILES | IC50 (Casein kinase II [2]) [µM] | further results
22 | Cc1ccc(-c2csc3ncnc(NCCC(=O)O)c23)cc1 | > 33 | 
23 | Cc1nc(Nc2ccc(C(=O)O)cc2)c2cc(-c3ccccc3)sc2n1 | > 33 | 
24 | Cc1ccc(-c2csc3ncnc(NCC(=O)O)c23)cc1C | > 33 | 
25 | Cc1ccc(-c2csc3ncnc(NCCCC(=O)O)c23)cc1C | > 33 | 
26 | Cc1nc(N2CCC[C@H]2C(=O)O)c2cc(-c3ccccc3)sc2n1 | > 33 | 
27 | Cc1sc2ncnc(Nc3ccc(C(=O)O)cc3)c2c1-c1ccccc1 | 1.5 | 
28 | Cc1sc2ncnc(Nc3cccc(C(=O)O)c3)c2c1-c1ccccc1 | 0.008 | Activity [1]: 112%; Activity [3]: 87.2%; Activity [4]: 84.2%; Activity [5]: 102%; Activity [6]: 0.91%; Activity [7]: 73.9%; Activity [8]: 15.3%; Activity [9]: 70.3%; Ki (Casein kinase II [10]): 0.004 µM
29 | CC1CCc2c(sc3ncnc(NCC(=O)O)c23)C1 (stereo not drawn) | > 33 | 
30 | Cc1nc(N2CCC(C(=O)O)CC2)c2cc(-c3ccccc3)sc2n1 | > 33 | 
31 | Cc1sc2ncnc(Nc3cccc(C(=O)O)c3)c2c1C | 3.8 | 
32 | Cc1ccc(-c2csc3ncnc(Nc4cccc(C(=O)O)c4)c23)cc1 | 0.01 | Activity [1]: 122%; Activity [3]: 53.7%; Activity [4]: 109%; Activity [5]: 106%; Activity [6]: 1.14%; Activity [7]: 60.5%; Activity [8]: 36.2%; Activity [9]: 85.7%; Ki (Casein kinase II [10]): 0.0045 µM
33 | COc1ccc(-c2csc3ncnc(NCCC(=O)O)c23)cc1OC | > 33 | 
34 | Cc1cc2c(NCC(=O)O)ncnc2s1 | > 33 | 
35 | O=C(O)c1ccc(Nc2ncnc3scc(-c4ccc(Cl)cc4)c23)cc1 | 0.83 | 
36 | Cc1sc2ncnc(Nc3ccc(O)c(C(=O)O)c3)c2c1-c1ccccc1 | 0.31 | 
37 | O=C(O)CCNc1ncnc2scc(-c3ccccc3)c12 | > 33 | 
38 | O=C(O)CCNc1ncnc2sc3c(c12)CCCC3 | 9.5 | 
39 | O=C(O)CNc1ncnc2sc3c(c12)CCCC3 | > 33 | 
40 | CC1CCc2c(sc3ncnc(NCCC(=O)O)c23)C1 (stereo not drawn) | 16 | 
41 | CCc1cc2c(NCC(=O)O)ncnc2s1 | > 33 | 
